From US20090280549A1, “Method for Treating Body Fluid” (priority 2005, published 2009)

What was measured:
[1] = tested on: A3/KAW cells (human malignant lymphoma cells); experiment: ATX-S10•Na(II) uptake into A3/KAW cells; type: cell-based; details: for ATX-S10•Na(II) uptake: A3/KAW
Method: (§1) After labeling the compound represented by formula (II) above (hereinafter referred to as “ATX-S10•Na(II)”) with ^14C, the ATX-S10•Na(II) was dissolved in saline at a concentration of approximately 1×10^−3 mol/L, and the solution was filtered and sterilized with a 0.22 μm filter and then diluted with 1% FBS (fetal bovine serum)-containing RPMI1640 medium to prepare a 5×10^−5 mol/L ATX-S10•Na(II)-added solution.
(§2) As malignant lymphoma cells and leukemia cells, there were used THP-1 cells (human monocytic leukemia cells), EoL-1 cells (human eosinophilic leukemia cells), A3/KAW cells (human malignant lymphoma cells) and KG-1 cells (human acute myeloid leukemia cells). All of the cells were cultured using 10% FBS-containing RPMI1640 medium, with subculturing 1 to 2 times per week during the culturing. The THP-1 cells and EoL-1 cells were obtained from RIKEN BioResource Center, and the A3/KAW cells and KG-1 cells were obtained from Japan Health Sciences Foundation.
(§3) After adding 400 μL of the cell suspension and 100 μL of the ATX-S10•Na(II)-added solution to each well of a 48-well microplate and mixing, the mixtures were incubated with a CO2 incubator (37° C., 5% CO2) or allowed to stand in a refrigerating chamber (approximately 4° C.). The cells were separated immediately after addition (0 hours after addition) and 1 hour, 3 hours, 20 hours and 44 hours after addition, and ATX-S10•Na(II) uptake into the cells (including cell surface binding) was measured. The uptake with standing at 4° C. corresponds to cell surface binding, and the value of the uptake with incubation at 37° C. minus the uptake with standing at 4° C. is presumed to correspond to the substantial ATX-S 10 Na(II) uptake for each type of cell.
(§4) The cell separation and uptake measurement were performed in the following manner. Specifically, 1 mL of 1.5% BSA (bovine serum albumin)-containing PBS solution (ice-cold) was placed in a 1.5 mL tube. The suspension of cells to be separated was gently pipetted and mixed, and a 100 μL portion was taken and superposed onto the 1.5% BSA-containing PBS solution. For each well, the cell suspension (300 μL) was dispensed into three tubes (n=3). After centrifugation (3200 rpm, 10 minutes, 4° C.), the medium and 1.5% BSA-containing PBS solution were removed by suction, and then the precipitate was suspended in 100 μL of PBS(−), and 1 mL of PBS(−) was further added and mixed therewith. After additional centrifugation (3000 rpm, 10 minutes, 4° C.), the supernatant was removed by suction, and the bottom of the tube, where the precipitate is present, was cut out and transferred to a counting vial. Then 4.5 mL of liquid scintillator was added and mixed therewith, and the radioactivity was measured for 5 minutes using a liquid scintillation counter. The measured radioactivity was used to calculate the ATX-S10•Na(II) uptake (pmol/10^5 cells) into the cells.

[2] = tested on: THP-1 cells (human monocytic leukemia cells); experiment: ATX-S10•Na(II) uptake into THP-1 cells; type: cell-based; details: for ATX-S10•Na(II) uptake: THP-1
Method: as §1, §2, §3, §4

[3] = tested on: EoL-1 cells (human eosinophilic leukemia cells); experiment: ATX-S10•Na(II) uptake into EoL-1 cells; type: cell-based; details: for ATX-S10•Na(II) uptake: EoL-1
Method: as §1, §2, §3, §4

erythrocytes = experiment: ATX-S10•Na(II) uptake into erythrocytes; type: cell-based, human
Method: as §1
(§5) Erythrocytes, platelets, neutrophils and lymphocytes were prepared from blood sampled from three healthy persons (designated as A, B and C).
The erythrocytes, neutrophils and lymphocytes were prepared from heparinized blood. […]
as §3, with “The uptake with standing at 4° C. corresponds to cell surface binding, and the value of the uptake with incubation at 37° C. minus the uptake with standing at 4° C. is presumed to correspond to the substantial ATX-S 10 Na(II) uptake for each type of cell.” left out
(§6) The cell separation and uptake measurement were performed in the following manner. […] Then 4.5 mL of liquid scintillator was added and mixed therewith, and the radioactivity was measured for 5 minutes using a liquid scintillation counter. […]

platelets = experiment: ATX-S10•Na(II) uptake into platelets; type: cell-based, human
Method: as §1, §5
The platelets were prepared from citric acid-treated blood. […]
as §3, with “The uptake with standing at 4° C. corresponds to cell surface binding, and the value of the uptake with incubation at 37° C. minus the uptake with standing at 4° C. is presumed to correspond to the substantial ATX-S 10 Na(II) uptake for each type of cell.” left out
as §6

[4] = 0 hr, immediately after addition

Structure (SMILES): C=Cc1c(C)c2cc3nc(cc4[nH]c(cc5nc(cc1[nH]2)C(C)=C5CCC(=O)NC(CC(=O)[O-])C(=O)[O-])c(CCC(=O)NC(CC(=O)[O-])C(=O)[O-])c4C)C(C)(O)/C3=C\C=NO.[Na+].[Na+].[Na+].[Na+] (centres unmarked) [ATX-S10•Na(II)]
- substantial uptake of ATX-S10•Na(II) (uptake at 37° C. minus uptake at 4° C.) ([1]; A3/KAW cells, course over incubation time): increased with incubation time
- ATX-S10•Na(II) uptake [1, 4]: 0.72 pmol/10^5 cells
- ATX-S10•Na(II) uptake ([1]; 1 hr, incubation at 37° C.): 2.38 pmol/10^5 cells
- ATX-S10•Na(II) uptake ([1]; 1 hr, standing at 4° C.): 1.16 pmol/10^5 cells
- ATX-S10•Na(II) uptake ([1]; 3 hr, incubation at 37° C.): 3.79 pmol/10^5 cells
- ATX-S10•Na(II) uptake ([1]; 3 hr, standing at 4° C.): 1.06 pmol/10^5 cells
- ATX-S10•Na(II) uptake ([1]; 20 hr, incubation at 37° C.): 10.06 pmol/10^5 cells
- ATX-S10•Na(II) uptake ([1]; 20 hr, standing at 4° C.): 1.44 pmol/10^5 cells
- ATX-S10•Na(II) uptake ([1]; 44 hr, incubation at 37° C.): 27.64 pmol/10^5 cells
- ATX-S10•Na(II) uptake ([1]; 44 hr, standing at 4° C.): 5.07 pmol/10^5 cells
- ATX-S10•Na(II) uptake [2, 4]: 0.56 pmol/10^5 cells
- ATX-S10•Na(II) uptake ([2]; 1 hr, incubation at 37° C.): 3.30 pmol/10^5 cells
- ATX-S10•Na(II) uptake ([2]; 1 hr, standing at 4° C.): 1.43 pmol/10^5 cells
- ATX-S10•Na(II) uptake ([2]; 3 hr, incubation at 37° C.): 4.73 pmol/10^5 cells
- ATX-S10•Na(II) uptake ([2]; 3 hr, standing at 4° C.): 2.88 pmol/10^5 cells
- ATX-S10•Na(II) uptake ([2]; 20 hr, incubation at 37° C.): 18.39 pmol/10^5 cells
- ATX-S10•Na(II) uptake ([2]; 20 hr, standing at 4° C.): 5.37 pmol/10^5 cells
- ATX-S10•Na(II) uptake ([2]; 44 hr, incubation at 37° C.): 33.21 pmol/10^5 cells
- ATX-S10•Na(II) uptake ([2]; 44 hr, standing at 4° C.): 1.94 pmol/10^5 cells
- uptake compared between cell types ([2]; THP-1 cells versus A3/KAW, KG-1 and EoL-1 cells): highest
- substantial uptake of ATX-S10•Na(II) (uptake at 37° C. minus uptake at 4° C.) ([2]; THP-1 cells, course over incubation time): increased with incubation time
- ATX-S10•Na(II) uptake [3, 4]: 0.32 pmol/10^5 cells
- ATX-S10•Na(II) uptake ([3]; 1 hr, incubation at 37° C.): 0.25 pmol/10^5 cells
- ATX-S10•Na(II) uptake ([3]; 1 hr, standing at 4° C.): 0.30 pmol/10^5 cells
- ATX-S10•Na(II) uptake ([3]; 3 hr, incubation at 37° C.): 0.48 pmol/10^5 cells
- ATX-S10•Na(II) uptake ([3]; 3 hr, standing at 4° C.): 0.32 pmol/10^5 cells
- ATX-S10•Na(II) uptake ([3]; 20 hr, incubation at 37° C.): 1.59 pmol/10^5 cells
- ATX-S10•Na(II) uptake ([3]; 20 hr, standing at 4° C.): 0.36 pmol/10^5 cells
- ATX-S10•Na(II) uptake ([3]; 44 hr, incubation at 37° C.): 3.09 pmol/10^5 cells
- ATX-S10•Na(II) uptake ([3]; 44 hr, standing at 4° C.): 0.37 pmol/10^5 cells
- uptake compared between cell types ([3]; EoL-1 cells versus THP-1, A3/KAW and KG-1 cells): fairly low value
- substantial uptake of ATX-S10•Na(II) (uptake at 37° C. minus uptake at 4° C.) ([3]; EoL-1 cells, course over incubation time): increased with incubation time
- ATX-S10•Na(II) uptake (erythrocytes): Almost no ATX-S10•Na(II) was taken up
- Aggregation of platelets (platelets; after incubation at 37° C. for 44 hours): Aggregation of platelets was observed
- ATX-S10•Na(II) uptake (platelets; platelets): Almost no ATX-S10•Na(II) was taken up
